These results are taken from US20240239861A1, “GLUCAGON-RECEPTOR SELECTIVE POLYPEPTIDES AND METHODS OF USE THEREOF” (i2O Therapeutics, Inc., priority 2016, published 2024).

Read-outs that look alike come from different tables or passages of the source. *1 amine or outer side, *2 acyl side, *3 side chain or, on linkers, in order; H or OH if unused. Where a SMILES comes first, the peptide text is derived from it. Side-chain parts run from the residue outwards. [ ]: non-standard residue; d: D form. The star is where a group is joined. γGlu = O=C(O)[C@H](CCC(=O)[*:2])N[*:1]; Palmitoyl = CCCCCCCCCCCCCCCC(=O)*; Aib = CC(C)(N)C(=O)O

The target of one assay is human GCGR (Homo sapiens, UniProt P47871). Briefly: Peptide-receptor mediated cAMP accumulation (LANCE Ultra cAMP) in CHO-K1 cells transfected with human GCGR. In kind it is cell-based. In general terms: Cyclic AMP is a second messenger, typically raised through Gs and lowered through Gi signalling.
Chain of human GCGR (P47871 26-477): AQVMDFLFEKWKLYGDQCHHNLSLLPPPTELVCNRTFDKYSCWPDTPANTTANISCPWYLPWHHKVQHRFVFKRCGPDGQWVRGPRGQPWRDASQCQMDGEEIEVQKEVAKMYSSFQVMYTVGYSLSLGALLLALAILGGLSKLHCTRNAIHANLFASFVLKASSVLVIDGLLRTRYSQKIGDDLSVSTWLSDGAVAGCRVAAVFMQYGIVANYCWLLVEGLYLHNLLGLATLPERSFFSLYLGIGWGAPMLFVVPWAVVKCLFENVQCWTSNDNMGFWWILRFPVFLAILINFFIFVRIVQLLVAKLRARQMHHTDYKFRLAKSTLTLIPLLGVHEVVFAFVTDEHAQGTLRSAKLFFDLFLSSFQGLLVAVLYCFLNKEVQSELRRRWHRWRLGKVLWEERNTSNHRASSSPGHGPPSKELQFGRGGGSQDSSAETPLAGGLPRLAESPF
The target in a further assay is human GLP-1R (Homo sapiens, UniProt P43220). The assay is described as follows: Peptide-receptor mediated cAMP accumulation (LANCE Ultra cAMP) in CHO-K1 cells transfected with human GLP-1R. It counts as cell-based.
Chain of human GLP-1R (P43220 24-463): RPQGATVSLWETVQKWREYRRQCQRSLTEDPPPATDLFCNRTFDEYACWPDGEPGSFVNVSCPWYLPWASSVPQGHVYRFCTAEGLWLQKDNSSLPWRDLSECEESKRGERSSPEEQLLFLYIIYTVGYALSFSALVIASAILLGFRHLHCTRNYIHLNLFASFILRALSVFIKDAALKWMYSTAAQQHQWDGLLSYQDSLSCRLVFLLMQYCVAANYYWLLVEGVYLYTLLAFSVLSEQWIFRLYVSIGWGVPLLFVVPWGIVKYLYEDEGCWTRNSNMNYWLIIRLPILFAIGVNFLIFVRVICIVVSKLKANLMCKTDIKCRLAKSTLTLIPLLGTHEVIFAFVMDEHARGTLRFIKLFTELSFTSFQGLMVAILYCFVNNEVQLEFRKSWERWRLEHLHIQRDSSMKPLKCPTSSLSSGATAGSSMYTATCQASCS
Setting [1] is: hGLP1 pEC50 (cAMP mean (n = 3): 11 point curve starting at 1 nM, Table 3).
Where [2] appears, read: read-out: GluR pEC50 (converted).
[3] abbreviates: Table 7, GLP-1R, read-out: GLP-1R pEC50 (converted).

Consider `CC(C)C[C@H](NC(=O)[C@H](Cc1ccc(O)cc1)NC(=O)[C@H](CCCCN)NC(=O)[C@H](CO)NC(=O)[C@H](Cc1ccc(O)cc1)NC(=O)[C@H](CC(=O)O)NC(=O)[C@H](CO)NC(=O)[C@@H](NC(=O)[C@H](Cc1ccccc1)NC(=O)[C@@H](NC(=O)CNC(=O)[C@H](Cc1c[nH]cn1)NC(=O)[C@H](CO)NC(=O)[C@@H](N)Cc1ccc(O)cc1)[C@@H](C)O)[C@@H](C)O)C(=O)N[C@@H](CC(=O)O)C(=O)NC(C)(C)C(=O)N[C@H](C(=O)N[C@@H](CCCNC(=N)N)C(=O)N[C@@H](C)C(=O)N[C@@H](CCC(N)=O)C(=O)N[C@@H](CCC(=O)O)C(=O)N[C@@H](Cc1ccccc1)C(=O)N[C@H](C(=O)NC(C)(C)C(=O)N[C@@H](Cc1c[nH]c2ccccc12)C(=O)N[C@@H](CC(C)C)C(=O)N[C@@H](CCC(=O)O)C(=O)N[C@@H](CC(=O)O)C(=O)N[C@@H](CCC(=O)O)C(=O)N1CCC[C@H]1C(=O)N[C@@H](CO)C(=O)N[C@@H](CO)C(=O)NCC(=O)N[C@@H](C)C(=O)N1CCC[C@H]1C(=O)N1CCC[C@H]1C(=O)N1CCC[C@H]1C(=O)N[C@@H](CO)C(=O)O)C(C)C)[C@@H](C)O` [Compound A16] (H-YSHGTFTSDYSKYLD[Aib]TRAQEFV[Aib]WLEDEPSSGAPPPS-OH; N-terminus assumed), for which the EC50 was 0.00126 nM at human GCGR (Table 3) and > 1 nM at human GLP-1R (setting [1]).

On to `CC(C)C[C@H](NC(=O)[C@H](Cc1c[nH]c2ccccc12)NC(=O)[C@H](CCCCN)NC(=O)[C@H](CO)NC(=O)[C@H](Cc1ccc(O)cc1)NC(=O)[C@H](CC(=O)O)NC(=O)[C@H](CO)NC(=O)[C@@H](NC(=O)[C@H](Cc1ccccc1)NC(=O)[C@@H](NC(=O)CNC(=O)[C@H](Cc1c[nH]cn1)NC(=O)[C@H](CO)NC(=O)[C@@H](N)Cc1ccc(O)cc1)[C@@H](C)O)[C@@H](C)O)C(=O)N[C@@H](CC(=O)O)C(=O)NC(C)(C)C(=O)N[C@@H](CO)C(=O)N[C@@H](CCCNC(=N)N)C(=O)N[C@@H](C)C(=O)N[C@@H](CCC(N)=O)C(=O)N[C@@H](CCC(=O)O)C(=O)N[C@@H](Cc1ccccc1)C(=O)N[C@H](C(=O)NC(C)(C)C(=O)N[C@@H](Cc1c[nH]c2ccccc12)C(=O)N[C@@H](CC(C)C)C(=O)N[C@@H](CCC(=O)O)C(=O)N[C@@H](CC(=O)O)C(=O)N[C@@H](CCC(=O)O)C(=O)N1CCC[C@H]1C(=O)N[C@@H](CO)C(=O)N[C@@H](CO)C(=O)NCC(=O)N[C@@H](C)C(=O)N1CCC[C@H]1C(=O)N1CCC[C@H]1C(=O)N1CCC[C@H]1C(=O)N[C@@H](CO)C(=O)O)C(C)C` [Compound A19] (H-YSHGTFTSDYSKWLD[Aib]SRAQEFV[Aib]WLEDEPSSGAPPPS-OH; N-terminus assumed), for which the values for the EC50 at human GCGR (Table 3) and at human GLP-1R (setting [1]) were 0.01 nM and > 1 nM, respectively.

Take `CC(C)C[C@H](NC(=O)[C@H](Cc1ccc(O)cc1)NC(=O)[C@H](CCCCN)NC(=O)[C@H](CO)NC(=O)[C@H](Cc1ccc(O)cc1)NC(=O)[C@H](CC(=O)O)NC(=O)[C@H](CO)NC(=O)[C@@H](NC(=O)[C@H](Cc1ccccc1)NC(=O)[C@@H](NC(=O)CNC(=O)[C@H](Cc1c[nH]cn1)NC(=O)[C@H](CO)NC(=O)[C@@H](N)Cc1ccc(O)cc1)[C@@H](C)O)[C@@H](C)O)C(=O)N[C@@H](CC(=O)O)C(=O)NC(C)(C)C(=O)N[C@@H](CCCCN)C(=O)N[C@@H](CCCNC(=N)N)C(=O)N[C@@H](C)C(=O)N[C@@H](CCC(N)=O)C(=O)N[C@@H](CCC(=O)O)C(=O)N[C@@H](Cc1ccccc1)C(=O)N[C@H](C(=O)NC(C)(C)C(=O)N[C@@H](Cc1c[nH]c2ccccc12)C(=O)N[C@@H](CC(C)C)C(=O)N[C@@H](CCC(=O)O)C(=O)N[C@@H](CC(=O)O)C(=O)N[C@@H](CCC(=O)O)C(=O)N1CCC[C@H]1C(=O)N[C@@H](CO)C(=O)N[C@@H](CCCCN)C(=O)NCC(=O)N[C@@H](C)C(=O)N1CCC[C@H]1C(=O)N1CCC[C@H]1C(=O)N1CCC[C@H]1C(=O)N[C@@H](CO)C(=O)O)C(C)C` [Compound A30] (H-YSHGTFTSDYSKYLD[Aib]KRAQEFV[Aib]WLEDEPSKGAPPPS-OH; N-terminus assumed): the results for the EC50 at human GCGR (Table 3) and on human GLP-1R (setting [1]) were 0.0126 nM and > 1 nM, respectively.

With `CC(C)C[C@H](NC(=O)[C@H](Cc1ccc(O)cc1)NC(=O)[C@H](CCCCN)NC(=O)[C@H](CO)NC(=O)[C@H](Cc1ccc(O)cc1)NC(=O)[C@H](CC(=O)O)NC(=O)[C@H](CO)NC(=O)[C@@H](NC(=O)[C@H](Cc1ccccc1)NC(=O)[C@@H](NC(=O)CNC(=O)[C@H](CCC(N)=O)NC(=O)[C@H](CO)NC(=O)[C@@H](N)Cc1c[nH]c2ccccc12)[C@@H](C)O)[C@@H](C)O)C(=O)N[C@@H](CC(=O)O)C(=O)NC(C)(C)C(=O)N[C@@H](CCCCN)C(=O)N[C@@H](C)C(=O)N[C@@H](C)C(=O)N[C@@H](CCC(N)=O)C(=O)N[C@@H](CCC(=O)O)C(=O)N[C@@H](Cc1ccccc1)C(=O)N[C@H](C(=O)NC(C)(C)C(=O)N[C@@H](Cc1c[nH]c2ccccc12)C(=O)N[C@@H](CC(C)C)C(=O)N[C@@H](CCC(=O)O)C(=O)N[C@@H](CC(=O)O)C(=O)N[C@@H](CCC(=O)O)C(=O)N1CCC[C@H]1C(=O)N[C@@H](CO)C(=O)N[C@@H](CO)C(=O)NCC(=O)N[C@@H](C)C(=O)N1CCC[C@H]1C(=O)N1CCC[C@H]1C(=O)N1CCC[C@H]1C(=O)N[C@@H](CO)C(=O)O)C(C)C` [Compound A92] (H-WSQGTFTSDYSKYLD[Aib]KAAQEFV[Aib]WLEDEPSSGAPPPS-OH; N-terminus assumed), the EC50 was 0.02 nM on human GCGR (Table 3) and > 1 nM at human GLP-1R (setting [1]).

On to `CC(C)C[C@H](NC(=O)[C@H](Cc1ccc(O)cc1)NC(=O)[C@H](CCCCN)NC(=O)[C@H](CO)NC(=O)[C@H](Cc1ccc(O)cc1)NC(=O)[C@H](CC(=O)O)NC(=O)[C@H](CO)NC(=O)[C@@H](NC(=O)[C@H](Cc1ccccc1)NC(=O)[C@@H](NC(=O)CNC(=O)[C@H](Cc1c[nH]cn1)NC(=O)[C@H](CO)NC(=O)[C@@H](N)Cc1ccc(O)cc1)[C@@H](C)O)[C@@H](C)O)C(=O)N[C@@H](CC(=O)O)C(=O)N[C@@H](CO)C(=O)N[C@@H](C)C(=O)N[C@@H](CCCNC(=N)N)C(=O)N[C@@H](C)C(=O)N[C@@H](CCC(N)=O)C(=O)N[C@@H](CCC(=O)O)C(=O)N[C@@H](Cc1ccccc1)C(=O)N[C@H](C(=O)N[C@@H](CCCCN)C(=O)N[C@@H](Cc1c[nH]c2ccccc12)C(=O)N[C@@H](CC(C)C)C(=O)N[C@@H](CCC(=O)O)C(=O)N[C@@H](CC(=O)O)C(=O)N[C@@H](CCC(=O)O)C(=O)N1CCC[C@H]1C(=O)N[C@@H](CCCCN)C(=O)N[C@@H](CO)C(=O)N[C@@H](CCCCN)C(=O)N[C@@H](C)C(=O)N1CCC[C@H]1C(=O)N1CCC[C@H]1C(=O)N1CCC[C@H]1C(=O)N[C@@H](CO)C(=O)O)C(C)C` [Compound A71] (H-YSHGTFTSDYSKYLDSARAQEFVKWLEDEPKSKAPPPS-OH; N-terminus assumed), for which the values for the EC50 on human GCGR (Table 3) and at human GLP-1R (setting [1]) were 0.002 nM and > 1 nM, respectively.

Consider `CCCCCCCCCCCCCCCC(=O)N[C@@H](CCC(=O)NCCCC[C@H](NC(=O)[C@@H](NC(=O)[C@H](Cc1ccccc1)NC(=O)[C@H](CCC(=O)O)NC(=O)[C@H](CCC(N)=O)NC(=O)[C@H](C)NC(=O)[C@H](CO)NC(=O)[C@H](CCCCN)NC(=O)C(C)(C)NC(=O)[C@H](CC(=O)O)NC(=O)[C@H](CC(C)C)NC(=O)[C@H](Cc1ccc(O)cc1)NC(=O)[C@H](CCCCN)NC(=O)[C@H](CO)NC(=O)[C@H](Cc1ccc(O)cc1)NC(=O)[C@H](CC(=O)O)NC(=O)[C@H](CO)NC(=O)[C@@H](NC(=O)[C@H](Cc1ccccc1)NC(=O)[C@@H](NC(=O)CNC(=O)[C@H](Cc1c[nH]cn1)NC(=O)[C@H](CO)NC(=O)[C@@H](N)Cc1ccc(O)cc1)[C@@H](C)O)[C@@H](C)O)C(C)C)C(=O)N[C@@H](Cc1c[nH]c2ccccc12)C(=O)N[C@@H](CC(C)C)C(=O)N[C@@H](CCC(=O)O)C(=O)N[C@@H](CC(=O)O)C(=O)N[C@@H](CCC(=O)O)C(=O)N1CCC[C@H]1C(=O)N[C@@H](CO)C(=O)N[C@@H](CO)C(=O)NCC(=O)N[C@@H](C)C(=O)N1CCC[C@H]1C(=O)N1CCC[C@H]1C(=O)N1CCC[C@H]1C(=O)N[C@@H](CO)C(=O)O)C(=O)O` [Compound B10], for which the EC50 on human GCGR (setting [2]) was 0.126 nM; on human GLP-1R (setting [3]) it was > 1000 nM.

Turning to `CCCCCCCCCCCCCCCC(=O)N[C@@H](CCC(=O)NCCCC[C@H](NC(=O)[C@H](CC(=O)O)NC(=O)[C@H](CO)NC(=O)[C@@H](NC(=O)[C@H](Cc1ccccc1)NC(=O)[C@@H](NC(=O)CNC(=O)[C@H](Cc1c[nH]cn1)NC(=O)[C@H](CO)NC(=O)[C@@H](N)Cc1ccc(O)cc1)[C@@H](C)O)[C@@H](C)O)C(=O)N[C@@H](CO)C(=O)N[C@@H](CCCCN)C(=O)N[C@@H](Cc1ccc(O)cc1)C(=O)N[C@@H](CC(C)C)C(=O)N[C@@H](CC(=O)O)C(=O)N[C@@H](CO)C(=O)N[C@@H](C)C(=O)N[C@@H](CCCNC(=N)N)C(=O)N[C@@H](C)C(=O)N[C@@H](CCC(N)=O)C(=O)N[C@@H](CCC(=O)O)C(=O)N[C@@H](Cc1ccccc1)C(=O)N[C@H](C(=O)N[C@@H](CCCCN)C(=O)N[C@@H](Cc1c[nH]c2ccccc12)C(=O)N[C@@H](CC(C)C)C(=O)N[C@@H](CCC(=O)O)C(=O)N[C@@H](CC(=O)O)C(=O)N[C@@H](CCC(=O)O)C(=O)N1CCC[C@H]1C(=O)N[C@@H](CO)C(=O)N[C@@H](CO)C(=O)NCC(=O)N[C@@H](C)C(=O)N1CCC[C@H]1C(=O)N1CCC[C@H]1C(=O)N1CCC[C@H]1C(=O)N[C@@H](CO)C(N)=O)C(C)C)C(=O)O` [Compound B44] (H-YSHGTFTSDK([γGlu-Palmitoyl])SKYLDSARAQEFVKWLEDEPSSGAPPPS-NH2), the results for the EC50 on human GCGR (setting [2]) and at human GLP-1R (setting [3]) were 0.00126 nM and 63.1 nM, respectively.
